Test results from patent publication US20120328569A1, “INHIBITORS OF HEPATITIS C VIRUS NS5B POLYMERASE” (priority 2010, published 2012).

Tested on: HCV genotype 1b replicon
Experiment: HCV replicon assay, cell ELISA with antibody to replicon-encoded NS3/4A (genotype 1b replicon)
Type: cell-based, hepatitis C virus
Details: Hepatitis C virus, 96 h, read-out: 1b IC50(nM), HCV genotype 1b replicon; 96 hours incubation; NS3/4A cell ELISA
How it was run: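 An ELISA on lysed cells, using an antibody against NS3/4A protease, served as the proxy for replicon RNA. Cells had first been exposed for 96 h to serially diluted compound in G418-free conditions. Percent of DMSO control was fitted with a four-parameter function to give IC50.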

Question: `CNC(=O)c1c(-c2ccc(F)cc2)oc2cc(N(C)S(C)(=O)=O)c(-c3ccc4c(c3)-c3[nH]c5ccccc5c3C(c3cccnc3)O4)cc12` (stereo not shown) [Example 589] was tested. Which IC50 did it give?
Answer: 3.38 nM

Question: With `CNC(=O)c1c(-c2ccc(F)cc2)oc2cc(N(C)S(C)(=O)=O)c(-c3ccc(OC)c(-c4nc5c(F)cccc5o4)c3)cc12` [Example 411, 5-[3-(4-Fluoro-benzooxazol-2-yl)-4-methoxy-phenyl]-2-(4-fluoro-phenyl)-6-(methanesulfonyl-methyl-amino)-benzofuran-3-carboxylic acid methylamide] as the compound, how does the IC50 read?
Answer: 7.1 nM

Question: Which IC50 does the source give for `CNC(=O)c1c(-c2ccc(F)cc2)oc2cc(N(CC3CCS(=O)(=O)C3)S(C)(=O)=O)c(-c3cccc(-c4nc5ncccc5o4)c3)cc12` (stereo not shown) [Example 719] here?
Answer: 3.14 nM

Question: For `CNC(=O)c1c(-c2ccc(F)cc2)oc2cc(N(CCC(O)CO)S(C)(=O)=O)c(-c3ccc(OC)c(-c4nc5c(F)cccc5o4)c3)cc12` (stereo not shown) [Example 784], which IC50 is on record?
Answer: 3.61 nM

Question: Which IC50 does the source give for `CNC(=O)c1c(-c2ccc(F)cc2)oc2cc(N(CC(C)(C)O)S(C)(=O)=O)c(-c3ccc(OC)c(-c4nc5cc(F)cc(F)c5o4)c3)cc12` [Example 780] here?
Answer: 18.5 nM

Question: With `CNC(=O)c1c(-c2ccc(F)cc2)oc2cc(N(C)S(C)(=O)=O)c(C#Cc3ccccc3)cc12` [Example 547] as the compound, how does the IC50 read?
Answer: 23.2 nM

Question: For `CNC(=O)c1c(-c2ccc(F)cc2)oc2cc(N(C)S(C)(=O)=O)c(-c3ccc(OC)c(-c4nc5c(F)ccc(F)c5o4)c3)cc12` [Example 874], which IC50 is on record?
Answer: 2.1 nM

Question: `CNC(=O)c1c(-c2ccc(F)cc2)oc2cc(N(CC(O)CC#N)S(C)(=O)=O)c(-c3ccc(OC)c(-c4nc5ccccc5o4)c3)cc12` (stereo not shown) [Example 820] was tested. Which IC50 did it give?
Answer: 5.06 nM

Question: With `CNC(=O)c1c(-c2ccc(F)cc2)oc2cc(N(C)S(C)(=O)=O)c(-c3ccc(O)c(-c4nc5c(F)cccc5o4)c3)cc12` [Example 606, 5-(3(4-fluorobenzo[d]oxazol-2-yl)-4-hydroxyphenyl)-2(4-fluorophenyl)-N-methyl-6-(N-methylmethylsulfonamido)benzofuran-3-carboxamide] as the compound, how does the IC50 read?
Answer: 9.32 nM

Question: How did the IC50 turn out when `CNC(=O)c1c(-c2ccc(F)cc2)oc2cc(N(C)S(C)(=O)=O)c(-c3ccc(N4CCOC4=O)c(-c4nc5c(F)cccc5o4)c3)cc12` [Example 483] was run?
Answer: 2.48 nM

Question: `CNC(=O)c1c(-c2ccc(F)cc2)oc2cc(N(CC(C)(CO)CO)S(C)(=O)=O)c(-c3ccc(OC)c(-c4nc5c(F)cc(F)cc5o4)c3)cc12` [Example 788] was tested. Which IC50 did it give?
Answer: 79 nM

Question: Which IC50 does the source give for `CNC(=O)c1c(-c2ccc(F)cc2)oc2cc(N(C)S(C)(=O)=O)c(-c3ccc(OC)c(-c4nc5cccc(C#N)c5o4)c3)cc12` [Example 858] here?
Answer: 2.8 nM

Question: `CNC(=O)c1c(-c2ccc(F)cc2)oc2cc(N(CCC(C)(C)C#N)S(C)(=O)=O)c(-c3ccc(OC)c(-c4nc5c(F)cc(F)cc5o4)c3)cc12` [Example 735] was tested. Which IC50 did it give?
Answer: 10.5 nM

Question: For `CNC(=O)c1c(-c2ccc(F)cc2)oc2cc(N(CCCP(=O)(O)O)S(C)(=O)=O)c(-c3ccc(OC)c(-c4nc5c(F)cccc5o4)c3)cc12` [Example 843], which IC50 is on record?
Answer: 19.5 nM

Question: Which IC50 does the source give for `CNC(=O)c1c(-c2ccc(F)cc2)oc2cc(N(CC(O)Cn3ncc4ccccc43)S(C)(=O)=O)c(-c3ccc(OC)c(-c4nc5c(F)cccc5o4)c3)cc12` (stereo not shown) [Example 827] here?
Answer: 11.8 nM

Question: How did the IC50 turn out when `CNC(=O)c1c(-c2ccc(F)cc2)oc2cc(N(CC3(C)COC3)S(C)(=O)=O)c(-c3ccc(OC)c(-c4nc5c(F)cccc5o4)c3)cc12` [Example 724] was run?
Answer: 4.47 nM

Same assay, conditions: Hepatitis C virus, 96 h, read-out: Replicon 1b IC50 (nM), HCV genotype 1b replicon cells, 96 hours incubation, NS3/4A ELISA readout

Question: With `CNC(=O)c1c(-c2ccc(F)cc2)oc2cc(N(C)S(C)(=O)=O)c(-c3cccc(-c4nc5cccnc5s4)c3)cc12` [Example 142, 2-(4-fluorophenyl)-N-methyl-6-[methyl (methylsulfonyl)amino]-5-[3-([1,3]thiazolo[5,4-b]pyridin-2-yl)phenyl]-1-benzofuran-3-carboxamide] as the compound, how does the IC50 read?
Answer: 1 nM

Question: `CNC(=O)c1c(-c2ccc(F)cc2)oc2cc(N(C)S(C)(=O)=O)c(-c3ccc(OC)c(-c4cc5ccccc5[nH]4)c3)cc12` [Compound 373] was tested. Which IC50 did it give?
Answer: 3.9 nM

Question: With `CNC(=O)c1c(-c2ccc(F)cc2)oc2cc(N(C)S(C)(=O)=O)c(-c3ccc(F)c(-c4nc5cnccc5o4)c3)cc12` [Example 213] as the compound, how does the IC50 read?
Answer: 2.5 nM

Question: How did the IC50 turn out when `CNC(=O)c1c(-c2ccc(F)cc2)oc2cc(N(C)S(C)(=O)=O)c(-c3cccc(-c4noc5ccccc45)c3)cc12` [Example 138, 5-[3-(1,2-benzisoxazol-3-yl)phenyl]-2-(4-fluorophenyl)-N-methyl-6-[methyl (methylsulfonyl)amino]-1-benzofuran-3-carboxamide] was run?
Answer: 9 nM

Question: For `CNC(=O)c1c(-c2ccc(F)cc2)oc2cc(N(C)S(C)(=O)=O)c(-c3cc(-c4nc5cccnc5o4)ccc3Cl)cc12` [Example 230], which IC50 is on record?
Answer: 8.3 nM

Question: With `CNC(=O)c1c(-c2ccc(F)cc2)oc2cc(N(C)S(C)(=O)=O)c(-c3cc(-c4nc5ccccc5o4)ccc3F)cc12` [Example 169] as the compound, how does the IC50 read?
Answer: 6.4 nM

Question: How did the IC50 turn out when `CNC(=O)c1c(-c2ccc(F)cc2)oc2cc(N(C)S(C)(=O)=O)c(-c3ccc(Cl)c(-c4nc5cc(Cl)cnc5[nH]4)c3)cc12` [Example 322] was run?
Answer: 19.5 nM

Question: How did the IC50 turn out when `CNC(=O)c1c(-c2ccc(F)cc2)oc2cc(N(C)S(C)(=O)=O)c(-c3cccc(-c4nc5ncccc5o4)c3)cc12` [Example 155, 2-(4-fluorophenyl)-N-methyl-6-(N-methylmethylsulfonamido)-5-(3-(oxazolo[4,5-b]pyridin-2-yl)phenyl)benzofuran-3-carboxamide] was run?
Answer: 1.1 nM

Question: For `C#CCN(c1cc2oc(-c3ccc(F)cc3)c(C(=O)NC)c2cc1-c1ccccc1)S(C)(=O)=O` [Example 34, 2-(4-fluorophenyl)-N-methyl-6-[(methylsulfonyl) (prop-2-yn-1-yl)amino]-5-phenyl-1-benzofuran-3-carboxamide], which IC50 is on record?
Answer: 189 nM

Question: Which IC50 does the source give for `CNC(=O)c1c(-c2ccc(F)cc2)oc2cc(N(C)S(C)(=O)=O)c(-c3ccc(Cl)c(-c4nc5cnccc5o4)c3)cc12` [Example 215] here?
Answer: 2.1 nM

Question: For `CNC(=O)c1c(-c2ccc(F)cc2)oc2cc(N(C)S(C)(=O)=O)c(-c3ccc(F)c(-c4nc5ccc(OC)nc5[nH]4)c3)cc12` [Example 309], which IC50 is on record?
Answer: 3.7 nM

Question: Which IC50 does the source give for `CNC(=O)c1c(-c2ccc(F)cc2)oc2cc(N(C)S(C)(=O)=O)c(-c3ccc(OC)c(-c4nc5ccc(C)cc5o4)c3)cc12` [Example 191] here?
Answer: 4.1 nM

Question: For `CCOC(=O)CCCN(c1cc2oc(-c3ccc(F)cc3)c(C(=O)NC)c2cc1-c1ccccc1)S(C)(=O)=O` [Example 42, ethyl 4-{[2-(4-fluorophenyl)-3-(methylcarbamoyl)-5-phenyl-1-benzofuran-6-yl](methylsulfonyl)amino}butanoate], which IC50 is on record?
Answer: 60 nM

Question: With `CNC(=O)c1c(-c2ccc(F)cc2)oc2cc(N(C)S(C)(=O)=O)c(-c3ccc(Cl)c(-c4nc5cccnc5[nH]4)c3)cc12` [Example 319] as the compound, how does the IC50 read?
Answer: 13.6 nM

Question: How did the IC50 turn out when `CNC(=O)c1c(-c2ccc(F)cc2)oc2cc(N(C)S(C)(=O)=O)c(-c3ccc(Cl)c(-c4nc5ccc(OC)nc5[nH]4)c3)cc12` [Example 320] was run?
Answer: 13.1 nM

Question: With `CNC(=O)c1c(-c2ccc(F)cc2)oc2cc(N(C)S(C)(=O)=O)c(-c3cccc(-c4nc5ccc(C)cc5o4)c3)cc12` [Example 174] as the compound, how does the IC50 read?
Answer: 10.4 nM

Question: Which IC50 does the source give for `CNC(=O)c1c(-c2ccc(F)cc2)oc2cc(N(C)S(C)(=O)=O)c(-c3cccc(-c4nc5cncnc5[nH]4)c3O)cc12` [Example 346] here?
Answer: 165 nM

Question: Which IC50 does the source give for `CNC(=O)c1c(-c2ccc(F)cc2)oc2cc(N(C)S(C)(=O)=O)c(-c3ccc(OC(F)(F)F)c(-c4nc5ncccc5o4)c3)cc12` [Example 206] here?
Answer: 2.1 nM

Question: Which IC50 does the source give for `CNC(=O)c1c(-c2ccc(F)cc2)oc2cc(N(C)S(C)(=O)=O)c(-c3ccc(F)c(-c4nc5cc(Cl)cnc5[nH]4)c3)cc12` [Example 311] here?
Answer: 1.7 nM

Question: For `CNC(=O)c1c(-c2ccc(F)cc2)oc2cc(N(C)S(C)(=O)=O)c(-c3ccc(Cl)c(-c4nc5c(F)cccc5o4)c3)cc12` [Example 405], which IC50 is on record?
Answer: 4.7 nM

Question: How did the IC50 turn out when `CNC(=O)c1c(-c2ccc(F)cc2)oc2cc(N(C)S(C)(=O)=O)c(-c3cccc(-c4cc5ccc(OC)cc5[nH]4)c3)cc12` [Example 356] was run?
Answer: 5.9 nM

Question: How did the IC50 turn out when `CNC(=O)c1c(-c2ccc(F)cc2)oc2cc(N(C)S(C)(=O)=O)c(-c3cccc(-c4nc5ccc(OC)nc5[nH]4)c3)cc12` [Example 327] was run?
Answer: 3.8 nM

Question: `CNC(=O)c1c(-c2ccc(F)cc2)oc2cc(N(C)S(C)(=O)=O)c(-c3cccc(-c4nc5cncnc5[nH]4)c3)cc12` [Example 341] was tested. Which IC50 did it give?
Answer: 14.6 nM

Question: `CNC(=O)c1c(-c2ccc(F)cc2)oc2cc(N(CCC3CCCCC3)S(C)(=O)=O)c(-c3ccccc3)cc12` [Example 27, 6-[(2-cyclohexylethyl) (methylsulfonyl)amino]-2-(4-fluorophenyl)-N-methyl-5-phenyl-1-benzofuran-3-carboxamide] was tested. Which IC50 did it give?
Answer: 384 nM

Question: `CNC(=O)c1c(-c2ccc(F)cc2)oc2cc(N(C)S(C)(=O)=O)c(-c3cccc(-c4nc5ccc(OC)nc5s4)c3)cc12` [Example 251] was tested. Which IC50 did it give?
Answer: 4 nM

Question: With `CNC(=O)c1c(-c2ccc(F)cc2)oc2cc(N(C)S(C)(=O)=O)c(-c3ccc(-c4ccccc4)cc3)cc12` [Example 112, 5-(biphenyl-4-yl)-2-(4-fluorophenyl)-N-methyl-6-[methyl(methylsulfonyl)amino]-1-benzofuran-3-carboxamide] as the compound, how does the IC50 read?
Answer: < 8 nM

Question: Which IC50 does the source give for `CNC(=O)c1c(-c2ccc(F)cc2)oc2cc(N(C)S(C)(=O)=O)c(-c3cccc(-c4nc5ccc(Cl)cc5o4)c3)cc12` [Example 171] here?
Answer: 6.8 nM

Question: For `CNC(=O)c1c(-c2ccc(F)cc2)oc2cc(N(C)S(C)(=O)=O)c(-c3cccc(-c4cnc(-c5ccccc5)s4)c3)cc12` [Example 136, 2-(4-fluorophenyl)-N-methyl-6-[methyl (methylsulfonyl)amino]-5-[3-(2-phenyl-1,3-thiazol-5-yl)phenyl]-1-benzofuran-3-carboxamide], which IC50 is on record?
Answer: 16 nM

Question: Which IC50 does the source give for `CNC(=O)c1c(-c2ccc(F)cc2)oc2cc(N(C)S(C)(=O)=O)c(-c3cc(F)cc(-c4nc5cccc(F)c5o4)c3)cc12` [Example 161] here?
Answer: 3.7 nM

Question: `CNC(=O)c1c(-c2ccc(F)cc2)oc2cc(N(C)S(C)(=O)=O)c(-c3cccc(-c4nc5cccnc5[nH]4)c3)cc12` [Example 299, 5-(3-(3H-imidazo[4,5-b]pyridin-2-yl)phenyl)-2-(4-fluorophenyl)-N-methyl-6-(N-methylmethylsulfonamido)benzofuran-3-carboxamide] was tested. Which IC50 did it give?
Answer: 3.3 nM
